Tests used:
[1] = test system: Thy1+ neonatal cardiac fibroblasts from α-MHC-GFP transgenic mice; experiment: Drug screening of GMT cardiac reprogramming, α-MHC-GFP reporter, high-content imaging; format: cell-based, mouse; conditions: compounds added day 1, read-out 2 weeks
Source text: To identify biological pathways that could be manipulated to improve cardiac reprogramming, a chemical biology approach involving an unbiased small molecule library screen was used. Cardiac reprogramming was induced with the recently described polycistronic GMT retrovirus Mef2c-P2A-Gata4-T2A-Tbx5 to ensure that each of the three transcription factors are optimally expressed, as described in detail in Wang et al. (2015) Circ. Res. 116:237-244.
Briefly, mouse cardiac fibroblasts (CF) were isolated from PO-P4 αMHC-GFP transgenic neonates using the migration method as previously described. Burridge et al. (2012) Cell Stem Cell 10:16-28; Ieda et al. (2010) Cell 142:375-386. Hearts were isolated, minced, and onto gelatin-coated plates and incubated in fibroblast explant media (20% FBS in IMOM) for one week at 37° C. The tissue was washed with 2×PBS, digested in 0.05% Trypsin for 5 minutes, and resuspended in fibroblast explant media. Tissues were filtered through a […] filter and pelleted. Pelleted cells were stained for 20 minutes with Thy-1-APC (anti-mouse/rat CD90.1 thy-1.1) (Ebioscience, San Diego, Calif., USA) and washed 2× with PBS as previously described. Ieda et al. (2010) Cell 142:375-386. Cells were sorted for APC^+ cells by fluorescence activated cell sorting (FACS) and plated onto 10 cm gelatin-coated plates and used fresh for all studies without freezing.
Direct conversion of Thy1^+ CFs to iCMs was completed as previously described in Ieda et al. (2010) Cell 142:375-386. Briefly, pMXs-Gata4, pMXs-Mef2c, pMXs-Tbx5, polycistronic pMXs-Mef2c-Gata4-Tbx5 (GMT polycistronic) or pMXs-dsRed were constructed as previously described. Ieda et al. (2010) Cell 142:375-386; Wang, L., et al. (2015) Circ Res 116, 237-244 (2015). Retroviral vectors were packaged using Fugene HD (Roche) and delivered in OptiMEM (10 μg) to 15-cm plates containing ˜80% confluent PlatE cells in fibroblast explant media, as previously described. Qian, L., et al. (2012) Nature 485, 593-59. Viral supernatant was collected 48 hours post-transfection and used to infect cardiac fibroblasts with the addition of 0.6 μg/ml polybrene (Chemicon) and added to cardiac fibroblasts at day −1. After 24 hours, the culture medium was replaced with cardiomyocyte culture medium (iCM medium (Qian, L., et al. (2013) Nature Protocols 8: 1204-1215)) at day 0, and replaced every 3-4 days. Three separate Gata4, Mef2c, and Tbx5 retroviruses were used in the initial drug screening and the in vivo experiments; however for further in vitro experiments following the initial screening the GMT polycistronic retrovirus was used.
For drug screening, Thy1^+ neonatal cardiac fibroblasts from α-MHC-GFP transgenic mice were plated in 384-well plates at a density of 2000 cells/well. Cells were reprogrammed with the GMT retrovirus as described above. At day 1 of reprogramming, the virus was replaced with iCM medium and the compounds were added to the wells using a Biomek liquid-handling robotic station to achieve a 1:1000 dilution of the drug-library concentration. Libraries of 5500 toxicologically tested compounds (e.g., LOPAC, TOCRIS, LONZA, and […]) were screened. At day 14 of reprogramming, the plates were fixed and stained for GFP and Troponin T as described under immunocytochemistry and imaged using high-throughput, high-content imaging with an INCELL system. Data were analyzed using the INCELL image-analysis package.
For immunocytochemical analysis and quantification, samples were fixed using 4% paraformaldehyde (PFA), washed twice in PBS containing 0.1% Triton X-100 (PBST), and blocked with Power Block Universal Blocking Reagent (Biogenex, # HK085-5K) for 15 minutes at room temperature as previously described. Qian et al. (2013) Nature protocols 8:1204-1215. Samples were incubated in a mixture containing primary antibodies diluted in PBST and blocking buffer (1:1) and incubated at 4° C. overnight.

[2] = test system: cardiac and fibroblast genes; experiment: qRT-PCR panel of cardiac and fibroblast genes during GMT reprogramming; format: cell-based, mouse; conditions: 2 weeks of reprogramming
Description: To identify which of the WNT or TGF-β inhibitor compounds most effectively improve reprogramming quality, qRT-PCR was performed for a panel of cardiac and fibroblast genes. Briefly, total RNA was isolated with a commercial kit (Direct-Zol RNA Mini-prep, Zymo Research). Reverse transcription was carried out using a mixture of oligo(dT) and random hexamer primers (SuperScript III First-Strand Synthesis SuperMix for qRT-PCR, ThermoFisher Scientific). Real-time PCR Analysis was conducted with the 7900HT FAST real-time PCR detection system (Applied Biosystems). For high-throughput, real-time PCR analysis, samples were analyzed with the 96.96 Dynamic Array IFC on the Biomark HD system (Fluidigm).

[3] = test system: mouse cardiac fibroblasts; experiment: GMT reprogramming efficiency, α-MHC-GFP+ iCMs (dose, timing, FACS); format: cell-based
[4] = test system: active β catenin; experiment: Western blot, active β catenin; format: cell-based
Description: (§1) Next, the mechanisms by which the small molecules regulate TGF-β and WNT signaling were investigated. Proteins from cell lysates containing 20 μg of protein were separated by SDS-PAGE and electrophoretically transferred onto polyvinylidene difluoride membranes (BioRad). Membranes were then washed in PBS, treated with blocking buffer (Li-cor), and then incubated with primary antibodies at 4° C. overnight. The following primary antibodies were used: anti-GAPDH antibody loading control (Abcam # ab9484, 0.5 μg/ml), anti-Active β-Catenin antibody (Millipore #05-665, 1:1000), anti-T-Antigen (Abcam # ab16879, 1:1000), and anti-phospho-Smad2/3 (Cell Signaling #8685S, 1:1000). Membranes were washed in PBS and incubated with the appropriate secondary antibodies (Li-Cor, IRDye […]; IRDye 800CW, 1:10,000) for 1 hour at room temperature. Membranes were washed and visualized with an Odyssey Fc Dual-mode Imaging System.

[5] = test system: cardiac fibroblasts; experiment: Activation or knockdown of TGF-β/WNT signaling during GMT reprogramming; format: cell-based, mouse; conditions: added during GMT reprogramming
Source text: It was also observed that activating TGF-β or canonical WNT signaling reversed the reprogramming efficiency gains induced by SB431542 or XAV939, respectively. […] Moreover, overexpression of constitutively active SMAD2 or SMAD3 (TGF-β signaling effectors) abolished cardiac reprogramming enhancement by SB431542 (FIG. 15). […] An ˜80% reduction of ALK4 or ALK5 (FIG. 16) enhanced direct cardiac reprogramming, similar to SB431542 (FIG. 16). […] Thus, SB431542 and XAV939 enhance cardiac reprogramming by inhibiting TGF-β and canonical WNT signaling.

[6] = test system: mouse cardiac fibroblasts; experiment: Appearance of beating cells, Troponin T staining and sarcomere organization in iCMs; format: cell-based; conditions: after GMT infection
Description: For immunocytochemical analysis and quantification, samples were fixed using 4% paraformaldehyde (PFA), washed twice in PBS containing 0.1% Triton X-100 (PBST), and blocked with Power Block Universal Blocking Reagent (Biogenex, # HK085-5K) for 15 minutes at room temperature as previously described. Qian et al. (2013) Nature protocols 8:1204-1215. Samples were incubated in a mixture containing primary antibodies diluted in PBST and blocking buffer (1:1) and incubated at 4° C. overnight. The following primary antibodies were used: troponin T, cardiac isoform Ab-1, mouse monoclonal antibody (Thermo Scientific # MS-295-PO, 1:200), monoclonal anti-α-actinin sarcomeric antibody (Sigma Aldrich # A7811, 1/200), and anti-GFP (Thermo Scientific # A11120, 1:200). Samples were washed twice with PBST for 15 minutes each at room temperature and then incubated in a mixture containing secondary antibodies diluted in PBST and blocking buffer (1:1) at room temperature for 1 hour. Samples were washed three times with PBST for 15 minutes each at room temperature and visualized. Stained cells were quantified with ImageJ Imaging Analysis Software. The standard error mean was calculated for all comparisons; p<0.05 was considered statistically significant. […]

[7] = test system: SMAD2/3; experiment: Western blot, phosphorylation of SMAD2/3; format: cell-based
Description: as §1

`O=c1c(O)c(-c2cc(O)c(O)c(O)c2)oc2cc(O)cc(O)c12` [myricetin] was tested, and the “hit in drug screen (Z score over 5)” value [1] was “top hits”.

For `Oc1nc(-c2ccc(C(F)(F)F)cc2)nc2c1CSCC2` [XAV939], the “hit in drug screen (Z score over 5)” value [1] was “top hits”, the “activating cardiac gene expression” value ([2]; among WNT inhibitors) was “most efficient of the WNT inhibitors” and the most effective dose ([3]; GMT reprogramming efficiency) was 5 µM. For the same molecule, the “effect of time of addition on enhancement” value ([3]; GMT, XAV939) was “same enhancement effect when added at any time during the first 8 days” and the “expression of active β catenin (indicator of WNT activation)” value [4] was “significantly reduced”.

In the case of `Cc1c[nH]c(-c2cnc(NCCNc3ccc(C#N)cn3)nc2-c2ccc(Cl)cc2Cl)n1` [CHIR99021], the “effect on reprogramming enhanced by SB431542 and XAV939” value (“effect … by SB431542 and XAV939” below) [5] is reported as “reversed the combined effect”.

In the case of `c1ccc2c(-c3cnn4cc(-c5ccc(N6CCNCC6)cc5)cnc34)ccnc2c1` [LDN-193189], the “hit in drug screen (Z score over 5)” value [1] is reported as “top hits”.

`CN1C(C(=O)Nc2ccccn2)=C(O)c2ccccc2S1(=O)=O` [piroxicam] was tested, and the “hit in drug screen (Z score over 5)” value [1] was “top hits”.

In the case of `NC(=O)c1ccc(-c2nc(-c3ccc4c(c3)OCO4)c(-c3ccccn3)[nH]2)cc1` [SB431542], the “hit in drug screen (Z score over 5)” value [1] is reported as “top hits”, the “downregulating fibroblast gene expression” value ([2]; among TGF-β inhibitors) is reported as “most efficient of the TGF-β inhibitors” and the “timing of addition for reprogramming efficiency” value ([3]; GMT, SB431542 2.6 μM) is reported as “most effective if added at day 1”. The “appearance of beating cells” value [6] was 3 weeks and the “phosphorylation of SMAD2/3 (indicator of TGF-β activation)” value [7] was “significantly reduced”.

For `NC(=O)c1ccc(-c2nc(-c3ccc4c(c3)OCCO4)c(-c3ccccn3)[nH]2)cc1` [D4476], the “hit in drug screen (Z score over 5)” value [1] was “top hits”.

For `O=C(Nc1cccc2cccnc12)c1ccc(N2C(=O)[C@@H]3[C@H](C2=O)[C@@H]2C=C[C@H]3C2)cc1` [IWR1], the “hit in drug screen (Z score over 5)” value [1] was “top hits”.

With activin the “effect on reprogramming enhanced by SB431542” value [5] was “did not have a significant effect”.

For “TGF-β1 ligand: excess TGF-β1 ligand added during reprogramming”, the “effect on reprogramming enhanced by SB431542” value [5] was “reversed the effect of SB431542” and the “effect … by SB431542 and XAV939” value [5] was “partially inhibited the combined effect”.

B1: WNT3a: activates canonical WNT signaling (protein, UniProt P56704 19-352, looked up)
Protein Wnt-3a: SYPIWWSLAVGPQYSSLGSQPILCASIPGLVPKQLRFCRNYVEIMPSVAEGIKIGIQECQHQFRGRRWNCTTVHDSLAIFGPVLDKATRESAFVHAIASAGVAFAVTRSCAEGTAAICGCSSRHQGSPGKGWKWGGCSEDIEFGGMVSREFADARENRPDARSAMNRHNNEAGRQAIASHMHLKCKCHGLSGSCEVKTCWWSQPDFRAIGDFLKDKYDSASEMVVEKHRESRGWVETLRPRYTYFKVPTERDLVYYEASPNFCEPNPETGSFGTRDRTCNVSSHGIDGCDLLCCGRGHNARAERRREKCRCVFHWCCYVSCQECTRVYDVHTCK
For B1, the “effect … by SB431542 and XAV939” value [5] was “partially blocked the effects”.

B2: WNT11: activates the non-canonical WNT pathway (protein, UniProt O96014 25-354, looked up)
Protein Wnt-11: IKWLALSKTPSALALNQTQHCKQLEGLVSAQVQLCRSNLELMHTVVHAAREVMKACRRAFADMRWNCSSIELAPNYLLDLERGTRESAFVYALSAAAISHAIARACTSGDLPGCSCGPVPGEPPGPGNRWGGCADNLSYGLLMGAKFSDAPMKVKKTGSQANKLMRLHNSEVGRQALRASLEMKCKCHGVSGSCSIRTCWKGLQELQDVAADLKTRYLSATKVVHRPMGTRKHLVPKDLDIRPVKDSELVYLQSSPDFCMKNEKVGSHGTQDRQCNKTSNGSDSCDLMCCGRGYNPYTDRVVERCHCKYHWCCYVTCRRCERTVERYVCK
B2 was tested, and the “effect … by SB431542 and XAV939” value [5] was “did not have a significant effect”.

B3: BMP4: regulates other aspects of TGF-β signaling (protein, UniProt P12644 293-408, looked up)
Bone morphogenetic protein 4: SPKHHSQRARKKNKNCRRHSLYVDFSDVGWNDWIVAPPGYQAFYCHGDCPFPLADHLNSTNHAIVQTLVNSVNSSIPKACCVPTELSAISMLYLDEYDKVVLKNYQEMVVEGCGCR
With B3 the “effect on reprogramming enhanced by SB431542” value [5] was “did not significantly affect cardiac reprogramming”.

Reference: patent publication US20200297775A1, “ENHANCED DIRECT CARDIAC REPROGRAMMING” (The J. David Gladstone Institutes, A Testamentary Trust …, priority 2016, published 2020)
